From patent US20190060261A1, “ACTIVE COMBINATIONS OF PERILLIC ACID AND ACTIVITY ENHANCING SUBSTANCES” (B.R.A.I.N BIOTECHNOLOGY RESEARCH AND INFORMATION NETWORK AG, priority 2016, published 2019)
≈ marks a conversion by molar mass, not a printed value. Read-outs that look alike come from different tables or passages of the source.

What was measured:
[1] = tested on: Candida albicans ATCC®10231; test: Conservation efficacy test according to DIN EN ISO 11930 in cosmetic formulation; assay type: cell-based; details: cosmetic formulation (oil-water-emulsion), day 0 to day 28
Procedure: (§1) The composition of the formulations was in general as follows (ingredient amounts according to the FDA-code):
(§2) In order to confirm the activity against Gram-positive and Gram-negative bacteria, yeasts and moulds, conservation efficacy tests were performed according to DIN EN ISO 11930. The following classical contamination germs were examined: Escherichia coli (Ec in FIGS. 1 and 2) ATCC®8739, Pseudomonas aeruginosa (Pa in FIGS. 1 and 2) ATCC®9027, Stapyhlococcus aureus (Sa in FIGS. 1 and 2) ATCC®6538, Candida albicans (Ca in FIGS. 1 and 2) ATCC®10231 and Aspergillus brasiliensis (Ab in FIGS. 1 and 2) ATCC®16404. Media composition, incubation conditions and dilution procedures were all conducted according to the guidelines.
(§3) Data are presented as line graphs. […] The tested contamination germs are identified by different symbols as indicated in the diagrams with the following abbreviations: […]

[2] = tested on: Pseudomonas aeruginosa ATCC®9027; test: as above; assay type: cell-based; details: cosmetic formulation (oil-water-emulsion), day 0 to day 28
Procedure: as §1, §2, §3

[3] = tested on: Escherichia coli; test: Combination of substances with perillic acid: reduction of the MIC of perillic acid; assay type: cell-based; details: test compound combined with perillic acid; experiments as in Example 1
Procedure: (§4) All experiments were done in 96-well plates in a final volume of 200 μL. Test solutions of the investigated compounds were prepared in 25 mM buffered water. The procedure was conducted as following: 4 μL of the particular stock solution were mixed with 196 μL culture medium containing a defined inoculum of the respective target strain. Sterile controls (not inoculated) and growth controls (buffer instead of compound added) were performed. All compound concentrations were tested in triplicate for several times. The following contamination germs were examined: Escherichia coli ATCC 8739, Pseudomonas aeruginosa ATCC 9027, Stapyhlococcus aureus ATCC®6538, Bacillus subtilis subsp. spizizenii ATCC®6633, Candida albicans ATCC®10231 and Aspergillus brasiliensis ATCC®16404. The strains were cultivated either in Mueller-Hinton II Bouillon (Escherichia coli, Pseudomonas aeruginosa, Staphylococcus aureus), in yeast peptone dextrose (Bacillus subtilis, Candida albicans) or in potato dextrose medium (Aspergillus brasiliensis). All culture media were buffered with 25 mM MES-buffer. For compound testing, the plates were incubated at 37° C. for Escherichia coli, Pseudomonas aeruginosa and Staphylococcus aureus, at 28° C. for Bacillus subtilis and Candida albicans, and at 25° C. for Aspergillus brasiliensis. Plates were evaluated after 24 h and 72 h, respectively. The minimal inhibitory concentration (MIC) is defined as the concentration where no microbial growth was observed after 24 h and 72 h incubation at the specified temperature.
(§5) Activity of perillic acid was comparably low against Gram-negative bacteria. It was thus tested whether the respective MIC could be reduced by combination of perillic acid with selected substances.
(§6) Experiments were performed as described for Example 1 above. A reduction factor was determined, expressing the reduction of the MIC of perillic acid that was achievable by combination with the combination partner. For example, a reduction factor of 2 means that the MIC of perillic acid was reduced by a factor of 2 by combination of perillic acid with the respective activity enhancing substance.

[4] = tested on: Pseudomonas aeruginosa; test: as above; assay type: cell-based; details: test compound combined with perillic acid; experiments as in Example 1
Procedure: as §4, §5, §6

[5] = tested on: Candida albicans ATCC®10231; test: Minimal inhibition concentration (MIC), microdilution method; assay type: cell-based; details: for MIC [A to D] Candida albicans: yeast peptone dextrose, 25 mM MES-buffer, 28° C., no growth after 24 h and 72 h; for MIC: Candida albicans, ATCC10231, read-out: MIC [A to D] Candida albicans
Source text: (§7) The antimicrobial activity of different substances was examined and compared to perillic acid in vitro using the microdilution method adapted from DIN EN ISO 20776-1:2006. Besides perillic acid and its sodium salt, other organic acids like levulinic acid, p-anisic acid, benzoic acid and sorbic acid as well as alkane-1,2-diols such as hexane-1,2-diol, octane-1,2-diol and decane-1,2-diol were studied. Additionally, the commonly used preservatives 2-phenoxyethanol, 2-phenylethanol and benzyl alcohol were investigated.
as §4
(§8) MIC-values are given according to the following letter code.

[6] = tested on: Pseudomonas aeruginosa ATCC 9027; test: as above; assay type: cell-based; details: for MIC: Pseudomonas aeruginosa
Source text: as §7, §4, §8

[7] = tested on: Aspergillus brasiliensis ATCC®16404; test: as above; assay type: cell-based; details: for MIC: Aspergillus brasiliensis
Source text: as §7, §4, §8

[8] = tested on: Bacillus subtilis subsp. spizizenii ATCC®6633; test: as above; assay type: cell-based; details: Bacillus subtilis
Source text: as §7, §4, §8

[9] = tested on: Stapyhlococcus aureus ATCC®6538; test: as above; assay type: cell-based, Staphylococcus aureus; details: for MIC: Staphylococcus aureus
Source text: as §7, §4, §8

[10] = tested on: Escherichia coli ATCC 8739; test: Minimal inhibition concentration (MIC), microdilution method adapted from DIN EN ISO 20776-1:2006; assay type: cell-based; details: Escherichia coli
Source text: as §7, §4, §8

[11] = tested on: Escherichia coli, Pseudomonas aeruginosa, Stapyhlococcus aureus, Candida albicans and Aspergillus brasiliensis; test: Conservation efficacy test according to DIN EN ISO 11930 in cosmetic formulation, all five test strains; assay type: cell-based; details: cosmetic formulation (oil-water-emulsion), day 0 to day 28
Procedure: as §1, §2, §3

[12] = tested on: Aspergillus brasiliensis ATCC®16404; test: Conservation efficacy test according to DIN EN ISO 11930 in cosmetic formulation; assay type: cell-based; details: cosmetic formulation (oil-water-emulsion), day 0 to day 28
Procedure: as §1, §2, §3

[13] = tested on: Escherichia coli ATCC®8739; test: as above; assay type: cell-based; details: cosmetic formulation (oil-water-emulsion), day 0 to day 28
Procedure: as §1, §2, §3

[14] = tested on: Stapyhlococcus aureus ATCC®6538; test: as above; assay type: cell-based, Staphylococcus aureus; details: cosmetic formulation (oil-water-emulsion), day 0 to day 28
Procedure: as §1, §2, §3

[15] = ATCC9027, Mueller-Hinton II Bouillon, 25 mM MES-buffer, 37° C., no growth after 24 h and 72 h, read-out: MIC [A to D] Pseudomonas aeruginosa
[16] = ATCC16404, potato dextrose medium, 25 mM MES-buffer, 25° C., no growth after 24 h and 72 h, read-out: MIC [A to D] Aspergillus brasiliensis
[17] = ATCC6633, yeast peptone dextrose, 25 mM MES-buffer, 28° C., no growth after 24 h and 72 h, read-out: MIC [A to D] Bacillus subtilis
[18] = Mueller-Hinton II Bouillon, 25 mM MES-buffer, 37° C., no growth after 24 h and 72 h
[19] = ATCC8739, Mueller-Hinton II Bouillon, 25 mM MES-buffer, 37° C., no growth after 24 h and 72 h, read-out: MIC [A to D] Escherichia coli
[20] = ATCC6633, read-out: MIC [A to D] Bacillus subtilis
[21] = ATCC8739, read-out: MIC [A to D] Escherichia coli

| SMILES | criteria for an adequate conservation against C. albicans [1] | Reduction factor (reduction of the MIC of perillic acid by combination with the test compound) Escherichia coli [3] | Reduction factor (reduction of the MIC of perillic acid by combination with the test compound) Pseudomonas aeruginosa [4] | MIC [A to D] Candida albicans [5] | MIC [6, 15] | MIC [7, 16] | MIC [8, 17] | MIC [A to D] Staphylococcus aureus [9, 18] | MIC [10, 19] | MIC [5] | MIC [8, 20] | MIC [10, 21] | further results |
| --- | --- | --- | --- | --- | --- | --- | --- | --- | --- | --- | --- | --- | --- |
| CCCCCCC(O)CO (stereo not drawn) [Octane-1,2-diol] | does not fulfill the criteria | 2000 | 2000 | A (MIC>1% (w/v)) | 1000 to 5000 µg/mL (≈ 6.84 to 34.2 mM) | 1000 to 5000 µg/mL (≈ 6.84 to 34.2 mM) | 1000 to 5000 µg/mL (≈ 6.84 to 34.2 mM) | A (MIC>1% (w/v)) | 5000 to 10000 µg/mL (≈ 34.2 to 68.4 mM) | – | – | – | criteria for an adequate conservation against P. aeruginosa [2]: does not fulfill the criteria |
| CC(=O)CCC(=O)O [Levulinic acid] | – | 200 | 40 | A (MIC>1% (w/v)) | 1000 to 5000 µg/mL (≈ 8.61 to 43.1 mM) | 1000 to 5000 µg/mL (≈ 8.61 to 43.1 mM) | 5000 to 10000 µg/mL (≈ 43.1 to 86.1 mM) | – | 1000 to 5000 µg/mL (≈ 8.61 to 43.1 mM) | – | – | – | criteria according to the guidelines for an adequate conservation (all five test strains) [11]: does not fulfill the criteria; MIC ([9]; ATCC6538, Mueller-Hinton II Bouillon, 25 mM MES-buffer, 37° C., no growth after 24 h and 72 h, read-out: MIC [A to D] Staphylococcus aureus): 1000 to 5000 µg/mL (≈ 8.61 to 43.1 mM) |
| OCCOc1ccccc1 [2-Phenoxyethanol, reference compound] | – | 30 | 20 | – | – | – | – | – | – | 5000 to 10000 µg/mL (≈ 36.2 to 72.4 mM) | 5000 to 10000 µg/mL (≈ 36.2 to 72.4 mM) | 5000 to 10000 µg/mL (≈ 36.2 to 72.4 mM) | MIC ([6]; ATCC9027, read-out: MIC [A to D] Pseudomonas aeruginosa): 5000 to 10000 µg/mL (≈ 36.2 to 72.4 mM); MIC ([7]; ATCC16404, read-out: MIC [A to D] Aspergillus brasiliensis): 5000 to 10000 µg/mL (≈ 36.2 to 72.4 mM); MIC ([9]; ATCC6538, read-out: MIC [A to D] Staphylococcus aureus): 5000 to 10000 µg/mL (≈ 36.2 to 72.4 mM) |
| C=C(C)[C@@H]1CC=C(C(=O)O)CC1 [Perillic acid] | fulfills the criteria | – | – | – | – | – | – | – | – | – | – | – | criteria for an adequate conservation against A. brasiliensis [12]: fulfills the criteria; criteria for an adequate conservation against E. coli [13]: fulfills the criteria; criteria for an adequate conservation against S. aureus [14]: fulfills the criteria |
| C/C=C/C=C/C(=O)[O-].[K+] [Potassium sorbate] | – | 200 | 40 | – | – | – | – | A (MIC>1% (w/v)) | – | 5000 to 10000 µg/mL | 1000 to 5000 µg/mL | 5000 to 10000 µg/mL | MIC [A to D] Pseudomonas aeruginosa [6, 18]: A (MIC>1% (w/v)); MIC [A to D] Aspergillus brasiliensis ([7]; potato dextrose medium, 25 mM MES-buffer, 25° C., no growth after 24 h and 72 h): A (MIC>1% (w/v)) |
